Data published in publication PMC9808420 (Biomedicine & Pharmacotherapy, 2023).
Where a name gives a salt, the structure may show the parent alone. Read-outs that look alike come from different tables or passages of the source.

Legend:
[1] = system: SARS-CoV-2 pseudovirus; experiment: organism not typed; type: cell-based; details: read-out: EC50 (S)
[2] = biological target: RBD domain of S protein (Severe acute respiratory syndrome coronavirus 2, UniProt P0DTC2); experiment: biochemical; type: binding, SARS-CoV-2
[3] = system: VSV-G pseudotyped lentivirus; experiment: microbe, parasite or virus in culture; type: cell-based; details: read-out: EC50 (VSVG)
[4] = biological target: SARS-CoV-2 Spike protein RBD and human ACE2 (Severe acute respiratory syndrome coronavirus 2, UniProt P0DTC2); type: binding, SARS-CoV-2; human

Row | Compound | EC50 ([1]; 48 h) | Kd [2] | EC50 ([3]; Lentivirus) | EC50 [1] | Kd ([2]; read-out: KD (equilibrium dissociation constant)) | EC50 [3] | Blocking of binding of SARS-CoV-2 RBD to ACE2 in vitro [4]
1 | CN[C@H](CC(C)C)C(=O)N[C@H]1C(=O)N[C@@H](CC(N)=O)C(=O)N[C@H]2C(=O)N[C@H]3C(=O)N[C@H](C(=O)N[C@H](C(=O)O)c4cc(O)cc(O)c4-c4cc3ccc4O)[C@H](O)c3ccc(c(Cl)c3)Oc3cc2cc(c3O[C@@H]2O[C@H](CO)[C@@H](O)[C@H](O)[C@H]2O[C@H]2C[C@](C)(N)[C@H](O)[C@H](C)O2)Oc2ccc(cc2Cl)[C@H]1O [Vancomycin hydrochloride] | > 100 µM | 1600 µM | > 100 µM |  |  |  | 
2 | Teicoplanin |  |  |  | > 100 µM | 673 µM | > 100 µM | fail to block binding
